# Test results as given in article PMC6481345, “A novel anti-melanoma SRC-family kinase inhibitor” (Oncotarget, 2019).
# How the values were obtained:
# EGFR = molecular target: T1, EGFR (Homo sapiens, UniProt P00533); assay: KiNativ in situ kinase profiling in melanoma cell lysates; type: binding; settings: 3-point dose response
# T1 construct: we tested the endogenous kinome response to SAB298; host or cells: YUSIV and YUSIK melanoma cell lysates
# Method: (§1) The effect of SAB298 on a panel of 36 recombinant kinases, was screed with the radioisotope filter binding assay employing 10 concentrations of the compound with 10 µM ATP (Reaction Biology Corporation, Malvern, PA). In addition, we tested the endogenous kinome response to SAB298 (0.05 µM, 0.5 µM and 5 µM) in lysates from two melanoma cell lines (YUSIV and YUSIK) employing the KiNativ® platform (ActivX Biosciences Inc., La Jolla, CA). KiNativ® is a robust, high performance mass spectrometry (LC-MS^2) assay that uses biotinylated probes to measure relevant changes in the affinity to the ATP-binding sites of 205 native kinases as a function of cellular context. We also validated SAB298 effect on the activity of SRC-family kinases by probing for phosphorylated Y416, the marker of activated SFKs, with anti-IEDNEpYTAR antibodies (also known as Y419, #2101, Cell Signaling Technology, Beverly, MA). In some cases the cells were incubated overnight with 20 µM proteasome inhibitor MG-132 (CAS 133407-82-6, Millipore Sigma, Burlington, MA) to rescue degradation.
# ERBB3 = molecular target: T2, ERBB3 (Homo sapiens, UniProt P21860); assay: as above; type: binding; settings: 3-point dose response
# T2 construct: we tested the endogenous kinome response to SAB298; host or cells: YUSIV and YUSIK melanoma cell lysates
# Method: as §1
# MEK1 = molecular target: T3, MEK1 (Homo sapiens, UniProt Q02750); assay: as above; type: binding; settings: MEK1 in YUSIV lysate; 3-point dose response
# T3 construct: we tested the endogenous kinome response to SAB298; host or cells: YUSIV or YUSIK melanoma cell lysate
# T3 sequence (Q02750 whole entry): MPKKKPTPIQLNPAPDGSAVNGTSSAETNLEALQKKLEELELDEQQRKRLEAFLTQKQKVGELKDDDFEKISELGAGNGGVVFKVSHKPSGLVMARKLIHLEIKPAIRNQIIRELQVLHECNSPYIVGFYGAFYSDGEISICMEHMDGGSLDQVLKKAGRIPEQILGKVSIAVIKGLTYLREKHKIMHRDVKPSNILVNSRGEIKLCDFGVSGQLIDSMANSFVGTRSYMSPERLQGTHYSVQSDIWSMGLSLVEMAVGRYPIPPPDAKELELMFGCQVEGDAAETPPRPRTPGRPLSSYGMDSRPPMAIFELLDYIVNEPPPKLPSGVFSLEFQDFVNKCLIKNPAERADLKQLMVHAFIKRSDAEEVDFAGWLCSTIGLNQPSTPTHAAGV
# Method: as §1
# RIPK2 = molecular target: T4, RIPK2 (Homo sapiens, UniProt O43353); assay: as above; type: binding; settings: RIPK2 in YUSIK lysate; 3-point dose response
# T4 construct: we tested the endogenous kinome response to SAB298; host or cells: YUSIV or YUSIK melanoma cell lysate
# Method: as §1
# mTOR = molecular target: T5, mTOR (Homo sapiens, UniProt P42345); assay: as above; type: binding; settings: 3-point dose response
# T5 construct: we tested the endogenous kinome response to SAB298; host or cells: YUSIV and YUSIK melanoma cell lysates
# Method: as §1
# [1] = molecular target: native kinases in YUSIV and YUSIK lysates; assay: KiNativ in situ kinase profiling (summary over kinases); type: binding, human; settings: mTOR, EGFR, LCK and MEK1; read-out: IC50, range over kinases
# Method: as §1
# YUSIK melanoma tumors = assay: In vivo tumor growth, YUSIK melanoma xenograft; settings: YUSIK tumor bearing nude mice, 20 mg/kg daily intraperitoneal from day 12, vs solvent control; 6 mice; p = 0.0006
# Method: All procedures involving animals were approved by the Institutional Animal Care and Use Committee of Yale University. YUSIK melanoma cells were grown to 80% confluency in 150 cm^2 flasks, detached by trypsinization, washed with PBS, and cell pellets were resuspended in 1:1 mixture of PBS and matrigel (BD Bioscience Cat #354234) to sustain cell viability. The cells (4 × 10^6/100 µl) were injected subcutaneously in the back flank of six weeks old female athymic Nude-Foxn1nu (nu/nu) mice (Charles River Laboratories, Wilmington, MA), and tumors were measuring daily with a caliper (length, width, and depth). When tumors reached palpable size (between 25–40 mm^3), the animals were randomized by tumor size and body weigh into two groups and were daily injected intraperitoneally with SAB298 (batch #AU0588-91, Sabila Biosciences LLC, 5 Overlook Road, New City, New York, 10956) or vehicle as controls (N = 6/each). […] The vehicle contained the same reagents but without SAB298.
# ABL2 [2] = molecular target: T6, ABL2 (Homo sapiens, UniProt P42684); assay: Radioisotope filter activity assay, recombinant kinase; type: biochemical; parameters: purchased Reaction Biology Corporation; settings: 10 point dose response, 10 µM ATP
# T6 sequence (P42684 whole entry): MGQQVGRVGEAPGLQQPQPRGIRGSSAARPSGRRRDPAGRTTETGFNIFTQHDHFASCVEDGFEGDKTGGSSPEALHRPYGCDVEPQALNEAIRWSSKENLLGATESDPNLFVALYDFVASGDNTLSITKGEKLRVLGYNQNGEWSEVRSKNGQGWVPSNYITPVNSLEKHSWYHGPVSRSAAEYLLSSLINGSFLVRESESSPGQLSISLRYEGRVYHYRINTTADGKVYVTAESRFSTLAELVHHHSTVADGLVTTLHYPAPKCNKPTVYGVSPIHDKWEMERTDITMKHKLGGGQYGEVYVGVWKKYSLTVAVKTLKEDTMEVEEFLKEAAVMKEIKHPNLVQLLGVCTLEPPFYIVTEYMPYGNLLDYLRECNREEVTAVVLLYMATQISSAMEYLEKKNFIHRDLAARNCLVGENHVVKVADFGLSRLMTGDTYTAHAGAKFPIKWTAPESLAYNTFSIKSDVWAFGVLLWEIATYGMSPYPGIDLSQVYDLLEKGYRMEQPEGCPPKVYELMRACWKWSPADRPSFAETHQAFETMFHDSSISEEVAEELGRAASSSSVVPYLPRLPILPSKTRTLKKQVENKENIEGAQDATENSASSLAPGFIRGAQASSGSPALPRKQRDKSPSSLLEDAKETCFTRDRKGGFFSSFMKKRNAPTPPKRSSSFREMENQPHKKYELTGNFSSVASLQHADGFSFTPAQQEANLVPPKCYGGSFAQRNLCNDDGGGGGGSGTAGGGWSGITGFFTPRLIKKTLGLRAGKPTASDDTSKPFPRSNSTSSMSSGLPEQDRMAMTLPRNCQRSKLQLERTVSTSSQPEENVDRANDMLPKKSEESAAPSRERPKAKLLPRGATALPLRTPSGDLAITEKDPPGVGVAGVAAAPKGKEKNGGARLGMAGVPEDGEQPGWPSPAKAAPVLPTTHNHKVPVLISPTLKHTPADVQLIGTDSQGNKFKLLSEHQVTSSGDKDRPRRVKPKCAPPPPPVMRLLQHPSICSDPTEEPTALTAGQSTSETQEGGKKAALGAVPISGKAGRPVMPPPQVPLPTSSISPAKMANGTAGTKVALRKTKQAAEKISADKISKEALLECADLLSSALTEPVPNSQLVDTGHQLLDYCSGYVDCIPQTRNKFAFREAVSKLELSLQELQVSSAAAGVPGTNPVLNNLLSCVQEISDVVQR
# Method: as §1
# (§2) Supplemntary Table 3: Radioisotope filter activity assay Tests for SAB298 target protein
# (§3) *These are results from 10 point dose response test employed with 10 µM ATP. […]
# (§4) SRC TRCN0000195339 3ʹUTR […]
# (§5) YES TRCN0000001611 CDS […]
# (§6) FYN TRCN0000003099 CDS […]
# (§7) LY N TRCN0000230901 CDS […]
# CSK [3] = molecular target: T7, CSK (Homo sapiens, UniProt P41240); assay: as above; type: biochemical; parameters: purchased Reaction Biology Corporation; settings: 10 point dose response, 10 µM ATP
# T7 sequence (P41240 whole entry): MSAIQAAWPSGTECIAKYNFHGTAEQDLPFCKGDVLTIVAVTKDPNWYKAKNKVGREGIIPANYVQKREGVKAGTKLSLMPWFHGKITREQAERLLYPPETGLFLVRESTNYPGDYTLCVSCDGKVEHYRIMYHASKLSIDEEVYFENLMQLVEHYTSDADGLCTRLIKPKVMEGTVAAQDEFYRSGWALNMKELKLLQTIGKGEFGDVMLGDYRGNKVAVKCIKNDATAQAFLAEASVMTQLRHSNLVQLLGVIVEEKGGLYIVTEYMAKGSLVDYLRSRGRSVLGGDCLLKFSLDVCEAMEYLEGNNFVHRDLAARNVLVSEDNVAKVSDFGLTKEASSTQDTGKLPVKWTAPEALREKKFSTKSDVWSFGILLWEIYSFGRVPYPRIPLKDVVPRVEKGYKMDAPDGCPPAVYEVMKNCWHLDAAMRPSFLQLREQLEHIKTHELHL
# Method: as §1, §2, §3, §4, §5, §6, §7
# ERBB2 [4] = molecular target: T8, ERBB2 (Homo sapiens, UniProt P04626); assay: as above; type: biochemical; parameters: purchased Reaction Biology Corporation; settings: 10 point dose response, 10 µM ATP
# T8 sequence (P04626 23-1255): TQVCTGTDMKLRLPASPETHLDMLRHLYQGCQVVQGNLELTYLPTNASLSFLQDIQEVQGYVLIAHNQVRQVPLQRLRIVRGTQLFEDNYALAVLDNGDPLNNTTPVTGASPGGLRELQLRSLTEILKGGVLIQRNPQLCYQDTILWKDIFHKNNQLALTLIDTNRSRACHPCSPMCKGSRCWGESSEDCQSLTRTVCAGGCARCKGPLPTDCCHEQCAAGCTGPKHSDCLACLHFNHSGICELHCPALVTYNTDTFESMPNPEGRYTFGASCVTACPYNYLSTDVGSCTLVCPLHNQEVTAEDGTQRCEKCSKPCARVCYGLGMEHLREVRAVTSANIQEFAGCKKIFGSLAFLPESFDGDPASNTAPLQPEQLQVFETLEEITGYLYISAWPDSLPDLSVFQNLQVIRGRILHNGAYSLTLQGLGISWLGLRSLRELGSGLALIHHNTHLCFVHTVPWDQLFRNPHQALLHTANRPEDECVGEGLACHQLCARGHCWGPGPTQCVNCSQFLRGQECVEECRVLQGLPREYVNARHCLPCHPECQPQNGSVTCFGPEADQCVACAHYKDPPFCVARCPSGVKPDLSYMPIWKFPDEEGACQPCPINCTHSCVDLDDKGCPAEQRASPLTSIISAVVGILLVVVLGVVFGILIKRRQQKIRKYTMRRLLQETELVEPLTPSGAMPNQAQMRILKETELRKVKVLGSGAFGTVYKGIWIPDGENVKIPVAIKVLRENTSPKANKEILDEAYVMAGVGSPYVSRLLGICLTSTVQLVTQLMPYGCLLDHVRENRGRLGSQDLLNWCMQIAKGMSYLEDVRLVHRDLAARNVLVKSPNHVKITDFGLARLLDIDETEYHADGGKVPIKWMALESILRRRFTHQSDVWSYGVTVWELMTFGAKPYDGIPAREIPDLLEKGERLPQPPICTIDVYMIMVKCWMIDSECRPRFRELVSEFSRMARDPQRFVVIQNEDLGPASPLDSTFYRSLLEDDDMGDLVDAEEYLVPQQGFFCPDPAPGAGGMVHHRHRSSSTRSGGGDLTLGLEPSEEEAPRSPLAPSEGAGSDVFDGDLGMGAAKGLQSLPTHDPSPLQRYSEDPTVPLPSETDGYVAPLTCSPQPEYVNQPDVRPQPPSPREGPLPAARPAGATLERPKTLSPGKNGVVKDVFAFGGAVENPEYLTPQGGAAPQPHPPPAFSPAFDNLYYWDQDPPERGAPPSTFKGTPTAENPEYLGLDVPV
# Method: as §1, §2, §3, §4, §5, §6, §7
# LCK = LCK (Homo sapiens, UniProt P06239); assay: as above; type: biochemical; parameters: purchased Reaction Biology Corporation; settings: 10 point dose response, 10 µM ATP
# LCK, sequence (P06239 whole entry): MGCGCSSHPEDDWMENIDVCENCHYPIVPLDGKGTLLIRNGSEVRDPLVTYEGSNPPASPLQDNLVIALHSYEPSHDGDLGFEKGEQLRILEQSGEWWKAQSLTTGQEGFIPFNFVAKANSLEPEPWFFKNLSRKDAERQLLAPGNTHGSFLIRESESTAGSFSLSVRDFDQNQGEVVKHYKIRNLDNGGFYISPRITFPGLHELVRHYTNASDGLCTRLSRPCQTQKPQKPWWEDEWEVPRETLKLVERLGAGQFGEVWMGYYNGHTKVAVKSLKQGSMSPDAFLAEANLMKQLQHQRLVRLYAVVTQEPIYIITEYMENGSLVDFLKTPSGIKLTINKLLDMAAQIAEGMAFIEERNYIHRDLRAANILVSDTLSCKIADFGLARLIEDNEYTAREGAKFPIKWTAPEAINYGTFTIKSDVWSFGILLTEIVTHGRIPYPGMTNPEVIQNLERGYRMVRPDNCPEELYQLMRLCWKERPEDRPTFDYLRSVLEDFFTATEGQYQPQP
# Method: as §1, §2, §3, §4, §5, §6, §7
# LYN = LYN (Homo sapiens, UniProt P07948); assay: as above; type: biochemical; parameters: purchased Reaction Biology Corporation; settings: 10 point dose response, 10 µM ATP
# Method: as §1, §2, §3, §4, §5, §6, §7
# SRC = SRC (Homo sapiens, UniProt P12931); assay: as above; type: biochemical; parameters: purchased Reaction Biology Corporation; settings: 10 point dose response, 10 µM ATP
# Method: as §1, §2, §3, §4, §5, §6, §7
# YES1 = YES1 (Homo sapiens, UniProt P07947); assay: as above; type: biochemical; parameters: purchased Reaction Biology Corporation; settings: 10 point dose response, 10 µM ATP
# Method: as §1, §2, §3, §4, §5, §6, §7
# ABL2 [5] = molecular target: T6, ABL2; assay: KiNativ in situ kinase profiling in melanoma cell lysates; type: binding; parameters: we tested the endogenous kinome response to SAB298; host or cells: YUSIV and YUSIK melanoma cell lysates; settings: 3-point dose response
# Method: as §1
# CSK [6] = molecular target: T7, CSK; assay: as above; type: binding; parameters: we tested the endogenous kinome response to SAB298; host or cells: YUSIV and YUSIK melanoma cell lysates; settings: 3-point dose response
# Method: as §1
# ERBB2 [7] = molecular target: T8, ERBB2; assay: as above; type: binding; parameters: we tested the endogenous kinome response to SAB298; host or cells: YUSIV and YUSIK melanoma cell lysates; settings: for IC50: 3-point dose response
# Method: as §1
# T1 sequence (P00533 25-1210): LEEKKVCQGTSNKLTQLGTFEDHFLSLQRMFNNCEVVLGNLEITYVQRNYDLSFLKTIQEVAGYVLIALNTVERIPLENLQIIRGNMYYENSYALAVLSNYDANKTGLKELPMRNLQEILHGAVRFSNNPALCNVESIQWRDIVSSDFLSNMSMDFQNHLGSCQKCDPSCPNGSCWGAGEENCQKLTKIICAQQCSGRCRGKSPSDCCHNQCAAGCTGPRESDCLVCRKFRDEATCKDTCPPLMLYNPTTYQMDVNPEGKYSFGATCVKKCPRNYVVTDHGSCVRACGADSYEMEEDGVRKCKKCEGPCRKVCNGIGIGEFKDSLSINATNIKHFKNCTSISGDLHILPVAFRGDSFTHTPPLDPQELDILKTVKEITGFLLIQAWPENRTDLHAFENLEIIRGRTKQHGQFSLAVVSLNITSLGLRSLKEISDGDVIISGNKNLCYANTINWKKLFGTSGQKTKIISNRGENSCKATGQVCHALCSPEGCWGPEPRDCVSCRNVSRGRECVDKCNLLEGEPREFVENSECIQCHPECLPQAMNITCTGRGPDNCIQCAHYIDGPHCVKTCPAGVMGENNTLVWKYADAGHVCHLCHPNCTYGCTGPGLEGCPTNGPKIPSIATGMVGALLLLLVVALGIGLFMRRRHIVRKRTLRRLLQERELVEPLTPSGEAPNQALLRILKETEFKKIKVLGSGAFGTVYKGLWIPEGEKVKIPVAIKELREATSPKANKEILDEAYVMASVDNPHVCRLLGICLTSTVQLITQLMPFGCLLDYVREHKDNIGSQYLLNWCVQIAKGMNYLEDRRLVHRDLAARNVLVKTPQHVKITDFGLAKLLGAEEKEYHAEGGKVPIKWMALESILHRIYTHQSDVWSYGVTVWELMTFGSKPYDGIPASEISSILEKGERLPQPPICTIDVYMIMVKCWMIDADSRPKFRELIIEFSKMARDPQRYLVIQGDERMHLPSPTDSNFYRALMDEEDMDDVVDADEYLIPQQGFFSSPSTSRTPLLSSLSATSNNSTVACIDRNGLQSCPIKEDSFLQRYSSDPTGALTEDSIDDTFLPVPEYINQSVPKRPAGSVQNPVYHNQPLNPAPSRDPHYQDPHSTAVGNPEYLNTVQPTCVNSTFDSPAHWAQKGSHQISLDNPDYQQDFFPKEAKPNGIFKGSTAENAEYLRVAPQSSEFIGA
compound,measurement,setting,value
"Nc1ncnc2c1c(-c1ccc(Oc3ccccc3)cc1)nn2C[C@@H]1SSC[C@@H]1O [SAB298, (3S, 4S)-3-((4-amino-3-(4-phenoxyphenyl)-1H-pyrazolo[3,4-d]pyrimidin-1-yl)methyl)-1,2-dithiolan-4-ol]",IC50,EGFR; EGFR in YUSIK lysate,530 nM
same,IC50,EGFR; EGFR in YUSIV lysate,1300 nM
same,IC50,ERBB3; ERBB3 in YUSIK lysate,240 nM
same,IC50,ERBB3; ERBB3 in YUSIV lysate,290 nM
same,IC50,MEK1,2900 nM
same,IC50,RIPK2,20 nM
same,IC50,mTOR; mTOR in YUSIK lysate,2000 nM
same,IC50,mTOR; mTOR in YUSIV lysate,1300 nM
same,IC50,[1],1300 to 2900 nM
same,Tumor growth,YUSIK melanoma tumors,significantly suppressed the growth
same,IC50,ABL2 [2],2560 nM
same,IC50,CSK [3],139 nM
same,IC50,ERBB2 [4],8860 nM
same,IC50,LCK,7.8 nM
same,IC50,LYN,137 nM
same,IC50,SRC,269 nM
same,IC50,YES1,0.7 nM
same,IC50,ABL2 [5]; ABL2 in YUSIK lysate,240 nM
same,IC50,ABL2 [5]; ABL2 in YUSIV lysate,87 nM
same,IC50,CSK [6]; CSK in YUSIK lysate,910 nM
same,IC50,CSK [6]; CSK in YUSIV lysate,420 nM
same,higher binding affinity in KiNativ assay compared to radioisotope filtration binding assay,ERBB2 [7]; ERBB2,~20 fold
same,IC50,ERBB2 [7]; ERBB2 in YUSIK lysate,530 nM
same,IC50,ERBB2 [7]; ERBB2 in YUSIV lysate,410 nM
